Assay results published in ChEMBL document CHEMBL4507266, “Data for DCP probe BAY-784” (2021).

What was measured:
[1] = system: Phosphatidylinositol 4,5-bisphosphate 3-kinase catalytic subunit alpha isoform (Homo sapiens), P42336 [Q546K]; details: Compound concentration 1000.0 nM
[2] = molecular target: Aurora kinase A (Homo sapiens) (UniProt O14965); details: Compound concentration 1000.0 nM
[3] = molecular target: Tyrosine-protein kinase Mer (Homo sapiens) (UniProt Q12866); details: Compound concentration 1000.0 nM
[4] = molecular target: Mitogen-activated protein kinase kinase kinase kinase 4 (Homo sapiens) (UniProt O95819); details: Compound concentration 1000.0 nM
[5] = molecular target: RAF proto-oncogene serine/threonine-protein kinase (Homo sapiens) (UniProt P04049); details: Compound concentration 1000.0 nM
RAF proto-oncogene serine/threonine-protein kinase (Homo sapiens), sequence (P04049 whole entry): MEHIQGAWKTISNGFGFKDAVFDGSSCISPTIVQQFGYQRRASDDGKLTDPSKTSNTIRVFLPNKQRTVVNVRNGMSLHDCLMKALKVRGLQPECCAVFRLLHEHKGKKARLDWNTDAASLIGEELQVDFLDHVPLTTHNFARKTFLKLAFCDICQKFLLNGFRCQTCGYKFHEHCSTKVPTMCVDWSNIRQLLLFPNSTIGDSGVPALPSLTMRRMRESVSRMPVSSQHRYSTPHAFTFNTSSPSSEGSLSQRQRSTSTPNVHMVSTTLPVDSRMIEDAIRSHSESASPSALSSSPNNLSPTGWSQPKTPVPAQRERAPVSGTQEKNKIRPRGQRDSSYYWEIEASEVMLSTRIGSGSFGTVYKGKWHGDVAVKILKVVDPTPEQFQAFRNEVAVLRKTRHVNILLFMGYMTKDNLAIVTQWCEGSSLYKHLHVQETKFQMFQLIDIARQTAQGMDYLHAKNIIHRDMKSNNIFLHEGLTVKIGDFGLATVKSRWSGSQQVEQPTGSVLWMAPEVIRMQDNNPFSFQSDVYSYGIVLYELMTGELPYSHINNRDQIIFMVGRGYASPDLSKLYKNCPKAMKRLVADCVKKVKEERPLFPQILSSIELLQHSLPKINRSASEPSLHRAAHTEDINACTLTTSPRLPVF

[6] = molecular target: Serine/threonine-protein kinase 32C (Homo sapiens) (UniProt Q86UX6); details: Compound concentration 1000.0 nM
[7] = molecular target: Tyrosine-protein kinase TXK (Homo sapiens) (UniProt P42681); details: Compound concentration 1000.0 nM
[8] = molecular target: NUAK family SNF1-like kinase 1 (Homo sapiens) (UniProt O60285); details: Compound concentration 1000.0 nM
[9] = molecular target: Mu-type opioid receptor (Homo sapiens) (UniProt P35372); details: Compound concentration 10.0 uM
Mu-type opioid receptor (Homo sapiens), sequence (P35372 whole entry): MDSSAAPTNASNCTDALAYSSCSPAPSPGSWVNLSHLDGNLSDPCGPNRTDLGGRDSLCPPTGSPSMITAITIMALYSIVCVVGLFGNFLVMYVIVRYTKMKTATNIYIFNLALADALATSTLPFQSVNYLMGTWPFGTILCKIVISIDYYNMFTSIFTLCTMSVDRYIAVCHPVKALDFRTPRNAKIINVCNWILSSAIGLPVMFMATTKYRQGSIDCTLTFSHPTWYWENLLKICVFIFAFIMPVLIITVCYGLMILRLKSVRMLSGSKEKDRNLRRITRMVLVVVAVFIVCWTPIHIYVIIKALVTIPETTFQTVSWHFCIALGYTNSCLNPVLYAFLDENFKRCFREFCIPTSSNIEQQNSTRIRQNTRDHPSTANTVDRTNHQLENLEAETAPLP

[10] = molecular target: D(3) dopamine receptor (Homo sapiens) (UniProt P35462); details: Compound concentration 10.0 uM
[11] = system: Epidermal growth factor receptor (Homo sapiens), P00533 [G719C]; details: Compound concentration 1000.0 nM
[12] = molecular target: Serine/threonine-protein kinase ULK2 (Homo sapiens) (UniProt Q8IYT8); details: Compound concentration 1000.0 nM
Serine/threonine-protein kinase ULK2 (Homo sapiens), sequence (Q8IYT8 whole entry): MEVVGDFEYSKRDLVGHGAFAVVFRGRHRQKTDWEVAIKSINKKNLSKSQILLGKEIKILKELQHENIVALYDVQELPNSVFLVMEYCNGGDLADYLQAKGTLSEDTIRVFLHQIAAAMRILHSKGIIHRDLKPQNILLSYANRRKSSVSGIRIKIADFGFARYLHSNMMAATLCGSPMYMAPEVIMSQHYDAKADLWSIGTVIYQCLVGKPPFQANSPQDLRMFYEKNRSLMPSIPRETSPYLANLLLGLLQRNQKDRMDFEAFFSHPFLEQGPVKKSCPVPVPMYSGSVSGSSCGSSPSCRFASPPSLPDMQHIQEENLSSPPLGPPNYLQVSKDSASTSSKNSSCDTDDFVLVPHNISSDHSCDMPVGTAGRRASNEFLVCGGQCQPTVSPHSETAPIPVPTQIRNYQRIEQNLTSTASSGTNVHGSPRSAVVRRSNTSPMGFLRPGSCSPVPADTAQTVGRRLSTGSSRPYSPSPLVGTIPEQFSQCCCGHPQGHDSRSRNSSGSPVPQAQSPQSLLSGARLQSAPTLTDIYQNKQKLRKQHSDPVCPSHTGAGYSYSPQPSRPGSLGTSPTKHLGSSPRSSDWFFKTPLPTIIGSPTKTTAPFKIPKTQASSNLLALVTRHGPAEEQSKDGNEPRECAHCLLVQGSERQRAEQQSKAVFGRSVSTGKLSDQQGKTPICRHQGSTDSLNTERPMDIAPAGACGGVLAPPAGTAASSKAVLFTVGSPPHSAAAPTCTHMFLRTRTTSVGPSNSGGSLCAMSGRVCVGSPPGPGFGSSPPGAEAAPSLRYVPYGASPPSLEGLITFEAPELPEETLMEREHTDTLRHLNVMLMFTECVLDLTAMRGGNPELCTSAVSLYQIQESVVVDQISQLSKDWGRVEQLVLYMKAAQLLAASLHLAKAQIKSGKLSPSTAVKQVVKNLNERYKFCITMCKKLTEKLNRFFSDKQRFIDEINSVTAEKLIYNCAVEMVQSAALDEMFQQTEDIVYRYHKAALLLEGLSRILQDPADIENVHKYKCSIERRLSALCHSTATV

[13] = molecular target: T1, Alpha-2C adrenergic receptor (Homo sapiens) (UniProt P18825); details: Compound concentration 10.0 uM
T1 sequence (whole entry): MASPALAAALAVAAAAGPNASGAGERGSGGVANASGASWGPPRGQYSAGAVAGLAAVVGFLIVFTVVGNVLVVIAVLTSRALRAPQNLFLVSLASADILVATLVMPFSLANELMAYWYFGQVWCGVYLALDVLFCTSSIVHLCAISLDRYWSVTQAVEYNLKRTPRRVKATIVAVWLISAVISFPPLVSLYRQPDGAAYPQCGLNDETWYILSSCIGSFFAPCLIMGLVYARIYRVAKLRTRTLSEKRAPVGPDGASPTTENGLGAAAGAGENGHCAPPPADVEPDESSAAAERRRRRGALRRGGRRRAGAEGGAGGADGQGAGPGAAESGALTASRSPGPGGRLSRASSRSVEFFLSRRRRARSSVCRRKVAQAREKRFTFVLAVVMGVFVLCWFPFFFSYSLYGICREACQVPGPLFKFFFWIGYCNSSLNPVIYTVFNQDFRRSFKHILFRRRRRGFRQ

[14] = molecular target: Tyrosine-protein kinase CSK (Homo sapiens) (UniProt P41240); details: Compound concentration 1000.0 nM
Tyrosine-protein kinase CSK (Homo sapiens), sequence (P41240 2-450 limits assumed): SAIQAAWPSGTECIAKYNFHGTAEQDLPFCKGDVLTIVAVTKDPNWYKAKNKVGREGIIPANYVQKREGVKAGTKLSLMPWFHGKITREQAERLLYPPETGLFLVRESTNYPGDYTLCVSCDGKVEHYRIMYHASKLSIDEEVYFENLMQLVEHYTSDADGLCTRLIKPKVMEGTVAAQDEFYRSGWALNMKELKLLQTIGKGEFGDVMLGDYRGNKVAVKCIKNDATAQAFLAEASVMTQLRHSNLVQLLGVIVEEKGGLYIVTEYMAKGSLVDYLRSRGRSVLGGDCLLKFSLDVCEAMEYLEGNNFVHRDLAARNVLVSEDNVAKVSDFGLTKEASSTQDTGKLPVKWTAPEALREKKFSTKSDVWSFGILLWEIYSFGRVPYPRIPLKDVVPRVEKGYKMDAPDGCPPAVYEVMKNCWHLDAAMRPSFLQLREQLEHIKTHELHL

[15] = system: Mast/stem cell growth factor receptor Kit (Homo sapiens), P10721 [V559D,T670I]; details: Compound concentration 1000.0 nM
[16] = molecular target: Non-receptor tyrosine-protein kinase TNK1 (Homo sapiens) (UniProt Q13470); details: Compound concentration 1000.0 nM
[17] = molecular target: Mitogen-activated protein kinase kinase kinase 9 (Homo sapiens) (UniProt P80192); details: Compound concentration 1000.0 nM
[18] = molecular target: Calcium/calmodulin-dependent protein kinase type II subunit beta (Homo sapiens) (UniProt Q13554); details: Compound concentration 1000.0 nM
[19] = system: Phosphatidylinositol 4,5-bisphosphate 3-kinase catalytic subunit alpha isoform (Homo sapiens), P42336 [E545K]; details: Compound concentration 1000.0 nM
[20] = molecular target: T2, Alpha-2A adrenergic receptor (Homo sapiens) (UniProt P08913); details: Compound concentration 10.0 uM
T2 sequence (whole entry): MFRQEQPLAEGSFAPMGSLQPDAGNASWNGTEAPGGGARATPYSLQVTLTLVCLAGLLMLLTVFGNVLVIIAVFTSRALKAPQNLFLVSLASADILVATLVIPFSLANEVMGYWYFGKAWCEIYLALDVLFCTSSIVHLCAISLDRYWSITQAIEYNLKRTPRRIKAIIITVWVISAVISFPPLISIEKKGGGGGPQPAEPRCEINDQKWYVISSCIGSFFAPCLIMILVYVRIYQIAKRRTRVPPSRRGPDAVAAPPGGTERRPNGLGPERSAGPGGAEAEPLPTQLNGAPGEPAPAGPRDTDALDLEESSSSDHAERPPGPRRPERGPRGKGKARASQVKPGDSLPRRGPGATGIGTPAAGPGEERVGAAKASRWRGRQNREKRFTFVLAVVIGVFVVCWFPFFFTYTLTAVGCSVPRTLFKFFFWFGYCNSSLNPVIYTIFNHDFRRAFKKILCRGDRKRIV

[21] = molecular target: Serine/threonine-protein kinase SIK1 (Homo sapiens) (UniProt P57059); details: Compound concentration 1000.0 nM
[22] = molecular target: Myosin light chain kinase 2, skeletal/cardiac muscle (Homo sapiens) (UniProt Q9H1R3); details: Compound concentration 1000.0 nM
[23] = molecular target: Casein kinase I isoform gamma-2 (Homo sapiens) (UniProt P78368); details: Compound concentration 1000.0 nM
[24] = molecular target: Protein kinase C delta type (Homo sapiens) (UniProt Q05655); details: Compound concentration 1000.0 nM
[25] = molecular target: Peripheral plasma membrane protein CASK (Homo sapiens) (UniProt O14936); details: Compound concentration 1000.0 nM
[26] = molecular target: Phosphatidylinositol 3-kinase catalytic subunit type 3 (Homo sapiens) (UniProt Q8NEB9); details: Compound concentration 1000.0 nM
[27] = molecular target: Serine/threonine-protein kinase RIO2 (Homo sapiens) (UniProt Q9BVS4); details: Compound concentration 1000.0 nM
[28] = molecular target: Rho-associated protein kinase 1 (Homo sapiens) (UniProt Q13464); details: Compound concentration 1000.0 nM
[29] = molecular target: Ribosomal protein S6 kinase alpha-4 (Homo sapiens) (UniProt O75676); details: Compound concentration 1000.0 nM
Ribosomal protein S6 kinase alpha-4 (Homo sapiens), sequence (O75676 whole entry, looked up): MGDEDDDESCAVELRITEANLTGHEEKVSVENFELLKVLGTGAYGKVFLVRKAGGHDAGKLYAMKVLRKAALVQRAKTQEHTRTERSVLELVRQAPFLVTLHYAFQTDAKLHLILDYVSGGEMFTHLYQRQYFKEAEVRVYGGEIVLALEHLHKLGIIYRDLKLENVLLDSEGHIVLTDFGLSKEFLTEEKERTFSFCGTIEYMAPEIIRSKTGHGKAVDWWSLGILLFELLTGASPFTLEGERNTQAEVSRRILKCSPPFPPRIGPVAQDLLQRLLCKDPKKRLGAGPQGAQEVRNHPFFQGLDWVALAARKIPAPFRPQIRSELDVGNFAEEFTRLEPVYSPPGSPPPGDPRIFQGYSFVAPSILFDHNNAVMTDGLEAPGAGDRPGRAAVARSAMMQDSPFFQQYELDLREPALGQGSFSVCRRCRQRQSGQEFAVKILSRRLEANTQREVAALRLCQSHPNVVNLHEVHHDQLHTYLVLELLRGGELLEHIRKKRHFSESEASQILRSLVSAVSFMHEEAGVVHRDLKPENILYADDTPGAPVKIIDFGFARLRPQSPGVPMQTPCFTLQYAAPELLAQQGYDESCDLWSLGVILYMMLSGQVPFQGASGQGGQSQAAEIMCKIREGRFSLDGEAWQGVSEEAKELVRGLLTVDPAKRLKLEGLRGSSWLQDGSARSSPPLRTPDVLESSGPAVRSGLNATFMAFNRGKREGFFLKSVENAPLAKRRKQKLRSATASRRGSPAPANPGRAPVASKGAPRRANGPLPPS

[30] = molecular target: Uncharacterized serine/threonine-protein kinase SBK3 (Homo sapiens) (UniProt P0C264); details: Compound concentration 1000.0 nM
Uncharacterized serine/threonine-protein kinase SBK3 (Homo sapiens), sequence (P0C264 whole entry): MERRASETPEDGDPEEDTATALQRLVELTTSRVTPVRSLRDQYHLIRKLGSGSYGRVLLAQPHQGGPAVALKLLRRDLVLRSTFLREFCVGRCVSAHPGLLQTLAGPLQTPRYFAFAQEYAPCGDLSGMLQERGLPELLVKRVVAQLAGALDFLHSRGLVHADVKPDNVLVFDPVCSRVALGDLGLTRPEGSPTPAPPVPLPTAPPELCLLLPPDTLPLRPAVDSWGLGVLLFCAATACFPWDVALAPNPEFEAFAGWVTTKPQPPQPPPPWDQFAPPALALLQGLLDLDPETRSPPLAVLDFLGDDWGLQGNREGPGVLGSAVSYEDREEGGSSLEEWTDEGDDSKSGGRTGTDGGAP

[31] = molecular target: Death-associated protein kinase 2 (Homo sapiens) (UniProt Q9UIK4); details: Compound concentration 1000.0 nM
Death-associated protein kinase 2 (Homo sapiens), sequence (Q9UIK4 whole entry, looked up): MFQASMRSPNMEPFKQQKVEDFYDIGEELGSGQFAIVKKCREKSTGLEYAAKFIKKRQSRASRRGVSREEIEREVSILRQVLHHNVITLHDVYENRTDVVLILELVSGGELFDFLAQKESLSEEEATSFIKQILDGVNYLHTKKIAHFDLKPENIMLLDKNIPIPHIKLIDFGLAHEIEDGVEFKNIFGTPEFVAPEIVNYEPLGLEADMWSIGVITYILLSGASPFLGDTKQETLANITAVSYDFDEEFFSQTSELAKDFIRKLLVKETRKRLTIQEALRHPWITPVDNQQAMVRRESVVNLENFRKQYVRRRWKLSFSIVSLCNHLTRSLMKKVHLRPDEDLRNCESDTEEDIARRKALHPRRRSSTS

[32] = molecular target: Tyrosine-protein kinase Fyn (Homo sapiens) (UniProt P06241); details: Compound concentration 1000.0 nM
Tyrosine-protein kinase Fyn (Homo sapiens), sequence (P06241 2-537 limits assumed): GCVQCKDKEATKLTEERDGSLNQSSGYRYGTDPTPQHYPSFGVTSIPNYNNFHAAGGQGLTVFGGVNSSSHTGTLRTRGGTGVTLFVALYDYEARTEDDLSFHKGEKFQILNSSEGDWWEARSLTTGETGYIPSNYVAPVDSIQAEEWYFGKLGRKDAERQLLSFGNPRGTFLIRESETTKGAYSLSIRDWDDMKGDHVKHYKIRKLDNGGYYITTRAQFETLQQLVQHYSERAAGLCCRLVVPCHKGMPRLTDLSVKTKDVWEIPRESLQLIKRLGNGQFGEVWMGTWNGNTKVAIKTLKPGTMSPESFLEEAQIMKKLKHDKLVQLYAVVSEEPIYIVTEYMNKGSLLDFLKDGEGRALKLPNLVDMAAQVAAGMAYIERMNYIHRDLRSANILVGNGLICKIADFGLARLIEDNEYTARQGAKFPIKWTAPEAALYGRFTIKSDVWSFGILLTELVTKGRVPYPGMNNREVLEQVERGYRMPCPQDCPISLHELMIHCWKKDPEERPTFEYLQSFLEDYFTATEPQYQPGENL

Aurora kinase A (Homo sapiens), sequence (O14965 whole entry): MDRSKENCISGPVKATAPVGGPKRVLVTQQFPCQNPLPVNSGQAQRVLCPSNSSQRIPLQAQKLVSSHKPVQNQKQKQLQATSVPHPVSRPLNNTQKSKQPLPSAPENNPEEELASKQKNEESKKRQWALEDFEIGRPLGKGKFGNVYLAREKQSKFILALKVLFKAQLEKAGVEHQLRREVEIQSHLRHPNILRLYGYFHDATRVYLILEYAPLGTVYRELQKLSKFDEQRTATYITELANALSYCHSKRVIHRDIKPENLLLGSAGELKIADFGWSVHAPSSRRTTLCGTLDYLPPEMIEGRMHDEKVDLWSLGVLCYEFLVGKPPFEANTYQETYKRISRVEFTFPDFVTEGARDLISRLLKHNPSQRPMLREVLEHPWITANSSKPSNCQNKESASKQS

O=C(NCc1ncc(C(F)(F)F)cc1Cl)c1ccc2c(c1)C1(CCS(=O)(=O)CC1)[C@H](C1CC1)N2S(=O)(=O)c1ccc(F)cc1 [BAY-784]
inactive: residual activity [1] 76% | residual activity [2] 97% | residual activity [3] 100% | residual activity [4] 91% | residual activity [5] 100% | residual activity [6] 100% | residual activity [7] 100% | residual activity [8] 83% | inhibition [9] 29.1% | inhibition [10] 9.45% | residual activity [11] 78% | residual activity [12] 58% | inhibition [13] 12.8% | residual activity [14] 97% | residual activity [15] 100% | residual activity [16] 88% | residual activity [17] 100% | residual activity [18] 98% | residual activity [19] 84% | inhibition [20] -5.62% | residual activity [21] 100% | residual activity [22] 100% | residual activity [23] 100% | residual activity [24] 100% | residual activity [25] 75% | residual activity [26] 86% | residual activity [27] 77% | residual activity [28] 94% | residual activity [29] 100% | residual activity [30] 100% | residual activity [31] 99% | residual activity [32] 100%

O=C(NCc1ncc(C(F)(F)F)cc1Cl)c1ccc2c(c1)C1(CCS(=O)(=O)CC1)[C@@H](C1CC1)N2S(=O)(=O)c1ccc(F)cc1 [BAY-786]
inactive: residual activity [1] 72% | residual activity [2] 81% | residual activity [3] 100% | residual activity [4] 100% | residual activity [5] 100% | residual activity [6] 100% | residual activity [7] 83% | residual activity [8] 88% | inhibition [9] 13.1% | inhibition [10] 3.82% | residual activity [11] 90% | residual activity [12] 54% | inhibition [13] 15.7% | residual activity [14] 96% | residual activity [15] 87% | residual activity [16] 88% | residual activity [17] 77% | residual activity [18] 92% | residual activity [19] 74% | inhibition [20] 6.57% | residual activity [21] 89% | residual activity [22] 83% | residual activity [23] 85% | residual activity [24] 100% | residual activity [25] 64% | residual activity [26] 89% | residual activity [27] 77% | residual activity [28] 82% | residual activity [29] 96% | residual activity [30] 100% | residual activity [31] 90% | residual activity [32] 70%
